Numbers after ± are expanded uncertainties.
Experiment: xn = mol fraction of the nth substance listed
Settings: 101 kPa, Liquid

CCCCCC [hexane] + CCCCCCC
mass density (273.15 K, x1 = 0.1019): 698.37 ± 0.61 kg/m3
mass density (273.15 K, x1 = 0.2003): 696.77 ± 0.62 kg/m3
mass density (273.15 K, x1 = 0.3005): 694.27 ± 0.62 kg/m3
mass density (273.15 K, x1 = 0.4007): 692.25 ± 0.63 kg/m3
mass density (273.15 K, x1 = 0.5001): 689.57 ± 0.63 kg/m3
mass density (273.15 K, x1 = 0.5984): 687.14 ± 0.64 kg/m3
mass density (273.15 K, x1 = 0.7002): 684.81 ± 0.64 kg/m3
mass density (273.15 K, x1 = 0.7995): 682.14 ± 0.65 kg/m3
mass density (273.15 K, x1 = 0.8974): 679.66 ± 0.65 kg/m3
mass density (278.15 K, x1 = 0.1019): 694.22 ± 0.62 kg/m3
mass density (278.15 K, x1 = 0.2003): 692.61 ± 0.62 kg/m3
mass density (278.15 K, x1 = 0.3005): 690.08 ± 0.63 kg/m3
mass density (278.15 K, x1 = 0.4007): 688.04 ± 0.63 kg/m3
mass density (278.15 K, x1 = 0.5001): 685.35 ± 0.64 kg/m3
mass density (278.15 K, x1 = 0.5984): 682.88 ± 0.64 kg/m3
mass density (278.15 K, x1 = 0.7002): 680.52 ± 0.65 kg/m3
mass density (278.15 K, x1 = 0.7995): 677.82 ± 0.65 kg/m3
mass density (278.15 K, x1 = 0.8974): 675.32 ± 0.66 kg/m3
mass density (283.15 K, x1 = 0.1019): 690.04 ± 0.63 kg/m3
mass density (283.15 K, x1 = 0.2003): 688.42 ± 0.63 kg/m3
mass density (283.15 K, x1 = 0.3005): 685.86 ± 0.63 kg/m3
mass density (283.15 K, x1 = 0.4007): 683.8 ± 0.64 kg/m3
mass density (283.15 K, x1 = 0.5001): 681.08 ± 0.64 kg/m3
mass density (283.15 K, x1 = 0.5984): 678.58 ± 0.65 kg/m3
mass density (283.15 K, x1 = 0.7002): 676.2 ± 0.65 kg/m3
mass density (283.15 K, x1 = 0.7995): 673.47 ± 0.66 kg/m3
mass density (283.15 K, x1 = 0.8974): 670.94 ± 0.67 kg/m3
mass density (288.15 K, x1 = 0.1019): 685.84 ± 0.63 kg/m3
mass density (288.15 K, x1 = 0.2003): 684.21 ± 0.63 kg/m3
mass density (288.15 K, x1 = 0.3005): 681.62 ± 0.64 kg/m3
mass density (288.15 K, x1 = 0.4007): 679.53 ± 0.64 kg/m3
mass density (288.15 K, x1 = 0.5001): 676.79 ± 0.65 kg/m3
mass density (288.15 K, x1 = 0.5984): 674.26 ± 0.66 kg/m3
mass density (288.15 K, x1 = 0.7002): 671.85 ± 0.66 kg/m3
mass density (288.15 K, x1 = 0.7995): 669.1 ± 0.67 kg/m3
mass density (288.15 K, x1 = 0.8974): 666.54 ± 0.67 kg/m3
mass density (293.15 K, x1 = 0.1019): 681.62 ± 0.64 kg/m3
mass density (293.15 K, x1 = 0.2003): 679.97 ± 0.64 kg/m3
mass density (293.15 K, x1 = 0.3005): 677.36 ± 0.65 kg/m3
mass density (293.15 K, x1 = 0.4007): 675.24 ± 0.65 kg/m3
mass density (293.15 K, x1 = 0.5001): 672.47 ± 0.66 kg/m3
mass density (293.15 K, x1 = 0.5984): 669.91 ± 0.66 kg/m3
mass density (293.15 K, x1 = 0.7002): 667.47 ± 0.67 kg/m3
mass density (293.15 K, x1 = 0.7995): 664.69 ± 0.67 kg/m3
mass density (293.15 K, x1 = 0.8974): 662.1 ± 0.68 kg/m3
mass density (298.15 K, x1 = 0.1019): 677.38 ± 0.64 kg/m3
mass density (298.15 K, x1 = 0.2003): 675.7 ± 0.65 kg/m3
mass density (298.15 K, x1 = 0.3005): 673.06 ± 0.65 kg/m3
mass density (298.15 K, x1 = 0.4007): 670.93 ± 0.66 kg/m3
mass density (298.15 K, x1 = 0.5001): 668.12 ± 0.66 kg/m3
mass density (298.15 K, x1 = 0.5984): 665.53 ± 0.67 kg/m3
mass density (298.15 K, x1 = 0.7002): 663.06 ± 0.67 kg/m3
mass density (298.15 K, x1 = 0.7995): 660.24 ± 0.68 kg/m3
mass density (298.15 K, x1 = 0.8974): 657.62 ± 0.69 kg/m3
mass density (303.15 K, x1 = 0.1019): 673.11 ± 0.65 kg/m3
mass density (303.15 K, x1 = 0.2003): 671.42 ± 0.65 kg/m3
mass density (303.15 K, x1 = 0.3005): 668.74 ± 0.66 kg/m3
mass density (303.15 K, x1 = 0.4007): 666.58 ± 0.66 kg/m3
mass density (303.15 K, x1 = 0.5001): 663.74 ± 0.67 kg/m3
mass density (303.15 K, x1 = 0.5984): 661.12 ± 0.67 kg/m3
mass density (303.15 K, x1 = 0.7002): 658.62 ± 0.68 kg/m3
mass density (303.15 K, x1 = 0.7995): 655.77 ± 0.69 kg/m3
mass density (303.15 K, x1 = 0.8974): 653.12 ± 0.69 kg/m3
mass density (308.15 K, x1 = 0.1019): 668.81 ± 0.66 kg/m3
mass density (308.15 K, x1 = 0.2003): 667.09 ± 0.66 kg/m3
mass density (308.15 K, x1 = 0.3005): 664.39 ± 0.67 kg/m3
mass density (308.15 K, x1 = 0.4007): 662.2 ± 0.67 kg/m3
mass density (308.15 K, x1 = 0.5001): 659.32 ± 0.68 kg/m3
mass density (308.15 K, x1 = 0.5984): 656.67 ± 0.68 kg/m3
mass density (308.15 K, x1 = 0.7002): 654.14 ± 0.69 kg/m3
mass density (308.15 K, x1 = 0.7995): 651.25 ± 0.69 kg/m3
mass density (308.15 K, x1 = 0.8974): 648.57 ± 0.7 kg/m3
mass density (313.15 K, x1 = 0.1019): 664.47 ± 0.66 kg/m3
mass density (313.15 K, x1 = 0.2003): 662.74 ± 0.67 kg/m3
mass density (313.15 K, x1 = 0.3005): 660 ± 0.67 kg/m3
mass density (313.15 K, x1 = 0.4007): 657.78 ± 0.68 kg/m3
mass density (313.15 K, x1 = 0.5001): 654.86 ± 0.68 kg/m3
mass density (313.15 K, x1 = 0.5984): 652.19 ± 0.69 kg/m3
mass density (313.15 K, x1 = 0.7002): 649.62 ± 0.69 kg/m3
mass density (313.15 K, x1 = 0.7995): 646.69 ± 0.7 kg/m3
mass density (313.15 K, x1 = 0.8974): 643.98 ± 0.71 kg/m3
mass density (318.15 K, x1 = 0.1019): 660.11 ± 0.67 kg/m3
mass density (318.15 K, x1 = 0.2003): 658.36 ± 0.67 kg/m3
mass density (318.15 K, x1 = 0.3005): 655.58 ± 0.68 kg/m3
mass density (318.15 K, x1 = 0.4007): 653.33 ± 0.68 kg/m3
mass density (318.15 K, x1 = 0.5001): 650.35 ± 0.69 kg/m3
mass density (318.15 K, x1 = 0.5984): 647.66 ± 0.69 kg/m3
mass density (318.15 K, x1 = 0.7002): 645.06 ± 0.7 kg/m3
mass density (318.15 K, x1 = 0.7995): 642.1 ± 0.71 kg/m3
mass density (318.15 K, x1 = 0.8974): 639.34 ± 0.71 kg/m3
mass density (323.15 K, x1 = 0.1019): 655.71 ± 0.68 kg/m3
mass density (323.15 K, x1 = 0.2003): 653.93 ± 0.68 kg/m3
mass density (323.15 K, x1 = 0.3005): 651.12 ± 0.69 kg/m3
mass density (323.15 K, x1 = 0.4007): 648.84 ± 0.69 kg/m3
mass density (323.15 K, x1 = 0.5001): 645.81 ± 0.7 kg/m3
mass density (323.15 K, x1 = 0.5984): 643.1 ± 0.7 kg/m3
mass density (323.15 K, x1 = 0.7002): 640.45 ± 0.71 kg/m3
mass density (323.15 K, x1 = 0.7995): 637.45 ± 0.71 kg/m3
mass density (323.15 K, x1 = 0.8974): 634.65 ± 0.72 kg/m3
mass density (328.15 K, x1 = 0.1019): 651.27 ± 0.68 kg/m3
mass density (328.15 K, x1 = 0.2003): 649.47 ± 0.69 kg/m3
mass density (328.15 K, x1 = 0.3005): 646.62 ± 0.69 kg/m3
mass density (328.15 K, x1 = 0.4007): 644.31 ± 0.7 kg/m3
mass density (328.15 K, x1 = 0.5001): 641.22 ± 0.7 kg/m3
mass density (328.15 K, x1 = 0.5984): 638.48 ± 0.71 kg/m3
mass density (328.15 K, x1 = 0.7002): 635.8 ± 0.71 kg/m3
mass density (328.15 K, x1 = 0.7995): 632.76 ± 0.72 kg/m3
mass density (328.15 K, x1 = 0.8974): 629.92 ± 0.73 kg/m3
mass density (333.15 K, x1 = 0.1019): 646.79 ± 0.69 kg/m3
mass density (333.15 K, x1 = 0.2003): 644.97 ± 0.69 kg/m3
mass density (333.15 K, x1 = 0.3005): 642.07 ± 0.7 kg/m3
mass density (333.15 K, x1 = 0.4007): 639.73 ± 0.7 kg/m3
mass density (333.15 K, x1 = 0.5001): 636.58 ± 0.71 kg/m3
mass density (333.15 K, x1 = 0.5984): 633.82 ± 0.72 kg/m3
mass density (333.15 K, x1 = 0.7002): 631.24 ± 0.72 kg/m3
mass density (333.15 K, x1 = 0.7995): 628.01 ± 0.73 kg/m3
mass density (333.15 K, x1 = 0.8974): 625.13 ± 0.73 kg/m3
mass density (338.15 K, x1 = 0.1019): 642.28 ± 0.7 kg/m3
mass density (338.15 K, x1 = 0.2003): 640.43 ± 0.7 kg/m3
mass density (338.15 K, x1 = 0.3005): 637.49 ± 0.71 kg/m3
mass density (338.15 K, x1 = 0.4007): 635.11 ± 0.71 kg/m3
mass density (338.15 K, x1 = 0.5001): 631.89 ± 0.72 kg/m3
mass density (338.15 K, x1 = 0.7002): 626.48 ± 0.73 kg/m3
mass density (338.15 K, x1 = 0.7995): 623.2 ± 0.74 kg/m3
mass density (338.15 K, x1 = 0.8974): 620.28 ± 0.74 kg/m3
mass density (343.15 K, x1 = 0.1019): 637.71 ± 0.7 kg/m3
mass density (343.15 K, x1 = 0.2003): 635.84 ± 0.71 kg/m3
mass density (343.15 K, x1 = 0.3005): 632.85 ± 0.71 kg/m3
mass density (343.15 K, x1 = 0.4007): 630.44 ± 0.72 kg/m3
mass density (343.15 K, x1 = 0.5001): 627.14 ± 0.72 kg/m3
mass density (343.15 K, x1 = 0.7002): 621.67 ± 0.74 kg/m3
mass density (348.15 K, x1 = 0.1019): 633.1 ± 0.71 kg/m3
mass density (348.15 K, x1 = 0.2003): 631.2 ± 0.71 kg/m3
mass density (348.15 K, x1 = 0.3005): 628.16 ± 0.72 kg/m3
mass density (348.15 K, x1 = 0.4007): 625.71 ± 0.72 kg/m3
mass density (348.15 K, x1 = 0.5001): 622.33 ± 0.73 kg/m3
mass density (348.15 K, x1 = 0.7002): 616.8 ± 0.74 kg/m3
mass density (353.15 K, x1 = 0.1019): 628.43 ± 0.72 kg/m3
mass density (353.15 K, x1 = 0.2003): 626.5 ± 0.72 kg/m3
mass density (353.15 K, x1 = 0.3005): 623.42 ± 0.73 kg/m3
mass density (353.15 K, x1 = 0.4007): 620.92 ± 0.73 kg/m3
mass density (358.15 K, x1 = 0.1019): 623.71 ± 0.73 kg/m3
mass density (358.15 K, x1 = 0.2003): 621.75 ± 0.73 kg/m3
mass density (358.15 K, x1 = 0.3005): 618.61 ± 0.73 kg/m3
mass density (358.15 K, x1 = 0.4007): 616.08 ± 0.74 kg/m3
mass density (363.15 K, x1 = 0.1019): 618.94 ± 0.73 kg/m3
mass density (363.15 K, x1 = 0.2003): 616.94 ± 0.74 kg/m3
mass density (363.15 K, x1 = 0.3005): 613.75 ± 0.74 kg/m3
mass density (363.15 K, x1 = 0.4007): 611.16 ± 0.75 kg/m3
